Assay results as given in ChEMBL document CHEMBL1914302, “The structure-antituberculosis activity relationships study in a series of 5-aryl-2-thio-1,3,4-oxadiazole derivatives” (2011).

Tests used:
[1] = test system: Mycobacterium tuberculosis; experiment: Antimycobacterial activity against Mycobacterium tuberculosis H37Rv ATCC 27294 assessed as growth inhibition at 6.25 ug/mL after 4 days by microplate alamar blue assay; format: functional; details: H37Rv ATCC 27294, 96 h, read-out: GI
[2] = test system: Mycobacterium tuberculosis; experiment: Antimycobacterial activity against Mycobacterium tuberculosis H37Rv ATCC 27294 assessed as growth inhibition at 12.5 ug/mL after 4 days by microplate alamar blue assay; format: functional; details: H37Rv ATCC 27294, 96 h, read-out: GI

SMILES | inhibition of growth at 6.25 µg/mL [1] [%] | inhibition of growth at 12.5 µg/mL [2] [%]
Cc1ccc(NC(S)=Nc2cccc(-c3nnc(S)o3)c2)cc1 | 18 | –
NC(S)=Nc1cccc(-c2nnc(S)o2)c1 | 13 | –
NN=C(S)Nc1cccc(-c2nnc(S)o2)c1 | 0 | –
CSc1nnc(-c2cccc(NC(S)=NN)c2)o1 | 0 | –
CSc1nnc(-c2ccc(NC(N)=S)cc2)o1 | 78 | –
NC(=S)Nc1ccc(-c2nnc(SCC(=O)c3ccccc3)o2)cc1 | 61 | –
CSc1nnc(-c2ccc(NC(=S)Nn3cnnc3)cc2)o1 | 58 | –
CSc1nnc(-c2ccc(NC(=S)N3CCOCC3)cc2)o1 | 0 | –
CSc1nnc(-c2ccc(NC(=S)Nc3ccc(C)cc3)cc2)o1 | 17 | –
C=CCSc1nnc(-c2ccc(N=C=S)cc2)o1 | 56 | –
CSc1nnc(-c2ccc(NC(=S)NN)cc2)o1 | 0 | –
O=C(CSc1nnc(-c2ccc(N=C=S)cc2)o1)c1ccc(Cl)cc1Cl | 2 | –
O=C(CSc1nnc(-c2ccc(N=C=S)cc2)o1)c1ccccc1 | 22 | –
O=C(CSc1nnc(-c2ccc(N=C=S)cc2)o1)c1ccc(F)cc1 | 12 | –
S=C=Nc1ccc(-c2nnc(Sc3ncccn3)o2)cc1 | 14 | –
S=C=Nc1ccc(-c2nnc(SCc3ccccc3)o2)cc1 | 20 | –
S=C=Nc1ccc(-c2nnc(SCc3ccncc3)o2)cc1 | 27 | –
CSc1nnc(-c2ccc(N=C=S)cc2)o1 | 37 | –
C=CCNC(=S)Nc1ccc(-c2nnc(S)o2)cc1 | 6 | –
Cc1ccc(NC(=S)Nc2ccc(-c3nnc(S)o3)cc2)cc1 | 5 | –
CN(C)NC(=S)Nc1ccc(-c2nnc(S)o2)cc1 | 9 | –

SMILES | inhibition of growth at 6.25 µg/mL [1] [%] | inhibition of growth at 12.5 µg/mL [2] [%]
OCCNC(=S)Nc1ccc(-c2nnc(S)o2)cc1 | 9 | –
S=C(Nc1ccc(-c2nnc(S)o2)cc1)N1CCCCC1 | 28 | –
CCNC(=S)Nc1ccc(-c2nnc(S)o2)cc1 | 0 | –
NC(=S)Nc1ccc(-c2nnc(S)o2)cc1 | 70 | –
CNC(=S)Nc1ccc(-c2nnc(S)o2)cc1 | 0 | –
S=C=Nc1ccc(-c2nnc(S)o2)cc1 | 2 | –
S=C=Nc1cccc(-c2nnc(S)o2)c1 | 9 | –
CSc1nnc(-c2ccc(NC(=S)NCCO)cc2)o1 | 67 | –
OCCNC(=S)Nc1ccc(-c2nnc(SCc3ccncc3)o2)cc1 | 25 | –
NC(=S)Nc1ccc(-c2nnc(Sc3ncccn3)o2)cc1 | 87 | –
O=C(CSc1nnc(-c2ccc(NC(=S)NCCO)cc2)o1)c1ccc(F)cc1 | 90 | –
NC(=S)Nc1ccc(-c2nnc(SCc3ccccc3)o2)cc1 | – | 91
NC(=S)Nc1ccc(-c2nnc(SCC(=O)c3ccc(Cl)cc3Cl)o2)cc1 | – | 93
O=C(CSc1nnc(-c2ccc(NC(=S)NCCO)cc2)o1)c1ccccc1 | – | 96
C=CCSc1nnc(-c2ccc(NC(=S)NCCO)cc2)o1 | – | 96
OCCNC(=S)Nc1ccc(-c2nnc(SCc3ccccc3)o2)cc1 | – | 97
C=CCSc1nnc(-c2ccc(NC(N)=S)cc2)o1 | – | 98
O=C(CSc1nnc(-c2ccc(NC(=S)NCCO)cc2)o1)c1ccc(Cl)cc1Cl | – | 98
NC(=S)Nc1ccc(-c2nnc(SCc3ccncc3)o2)cc1 | – | 97
OCCNC(=S)Nc1ccc(-c2nnc(Sc3ncccn3)o2)cc1 | 14 | –
C=CCNC(=S)Nc1cccc(-c2nnc(S)o2)c1 | 0 | –

SMILES | inhibition of growth at 6.25 µg/mL [1] [%] | inhibition of growth at 12.5 µg/mL [2] [%]
CC(C)=NNC(=S)Nc1cccc(-c2nnc(S)o2)c1 | 16 | –
C/C(=N/NC(=S)Nc1cccc(-c2nnc(S)o2)c1)c1ccccc1 | 20 | –
S=C(Nc1cccc(-c2nnc(S)o2)c1)Nn1cnnc1 | 13 | –
S=C(Nc1cccc(-c2nnc(S)o2)c1)N1CCCCC1 | 13 | –
CN(C)NC(=S)Nc1cccc(-c2nnc(S)o2)c1 | 5 | –
S=C=Nc1cccc(-c2cnc(SCCc3ccccc3)o2)c1 | 0 | –
S=C=Nc1cccc(-c2nnc(SCc3ccccc3)o2)c1 | 0 | –
O=C(CSc1nnc(-c2cccc(N=C=S)c2)o1)c1ccc2ccccc2c1 | 0 | –
O=C(CSc1nnc(-c2cccc(N=C=S)c2)o1)c1ccc(Br)cc1 | 0 | –
O=C(CSc1nnc(-c2cccc(N=C=S)c2)o1)c1ccc(Cl)cc1Cl | 0 | –
C=CCSc1nnc(-c2cccc(N=C=S)c2)o1 | 3 | –
O=C(CSc1nnc(-c2cccc(N=C=S)c2)o1)c1ccc(F)cc1 | 5 | –
O=C(CSc1nnc(-c2cccc(N=C=S)c2)o1)c1ccc(Cl)cc1 | 0 | –
O=C(CSc1nnc(-c2cccc(NC(=S)NCCO)c2)o1)c1ccc(F)cc1 | 0 | –
CN(C)C(=S)Nc1cccc(-c2nnc(SCC(=O)c3ccc4ccccc4c3)o2)c1 | 0 | –
O=C(CSc1nnc(-c2cccc(NC(=S)NCCO)c2)o1)c1ccc2ccccc2c1 | 0 | –
O=C(CSc1nnc(-c2cccc(NC(=S)NCCO)c2)o1)c1ccc(Cl)cc1Cl | 0 | –
NC(=S)Nc1cccc(-c2nnc(SCC(=O)c3ccc(Cl)cc3Cl)o2)c1 | 0 | –
NC(=S)Nc1cccc(-c2nnc(SCC(=O)c3ccc(Cl)cc3)o2)c1 | 0 | –
NC(=S)Nc1cccc(-c2nnc(SCC(=O)c3ccccc3)o2)c1 | 0 | –
NC(=S)Nc1cccc(-c2nnc(SCC(=O)c3ccc(Br)cc3)o2)c1 | 6 | –

SMILES | inhibition of growth at 6.25 µg/mL [1] [%] | inhibition of growth at 12.5 µg/mL [2] [%]
CN(C)C(=S)Nc1cccc(-c2nnc(SCC(=O)c3ccccc3)o2)c1 | 9 | –
NC(=S)Nc1cccc(-c2nnc(SCCc3ccccc3)o2)c1 | 16 | –
O=C(CSc1nnc(-c2cccc(NC(=S)NCCO)c2)o1)c1ccc(Br)cc1 | 17 | –
CN(C)C(=S)Nc1cccc(-c2nnc(SCC(=O)c3ccc(Cl)cc3)o2)c1 | 18 | –
NC(=S)Nc1cccc(-c2nnc(SCC(=O)c3ccc(F)cc3)o2)c1 | 19 | –
O=C(CSc1nnc(-c2cccc(NC(=S)NCCO)c2)o1)c1ccccc1 | 12 | –
Cc1ccc(C(=O)CSc2nnc(-c3cccc(NC(=S)N(C)C)c3)o2)cc1 | 10 | –
NC(=S)Nc1cccc(-c2nnc(SCC(=O)c3ccc4ccccc4c3)o2)c1 | 16 | –
OCCNC(=S)Nc1cccc(-c2nnc(SCCc3ccccc3)o2)c1 | 13 | –
CSc1nnc(-c2cccc(NC(N)=S)c2)o1 | 25 | –
CSc1nnc(-c2cccc(NC(=S)NCCO)c2)o1 | 8 | –
CSc1nnc(-c2cccc(NC(=S)Nn3cnnc3)c2)o1 | 58 | –
CSc1nnc(-c2cccc(NC(=S)Nc3ccc(C)cc3)c2)o1 | 21 | –
CSc1nnc(-c2cccc(NC(=S)N3CCOCC3)c2)o1 | 0 | –
CSc1nnc(-c2cccc(NC(=S)NN(C)C)c2)o1 | 8 | –
CN(C)C(=S)Nc1cccc(-c2nnc(SCC(=O)c3ccc(Cl)cc3Cl)o2)c1 | 1 | –
NC(=S)Nc1cccc(-c2nnc(SCc3ccccc3)o2)c1 | 0 | –
CNC(=S)Nc1cccc(-c2nnc(SCC(=O)c3ccc4ccccc4c3)o2)c1 | 0 | –
NNC(=S)Nc1ccc(-c2nnc(S)o2)cc1 [STEMAZOLE] | 0 | –
